{
  "source": "paper PMC8802618",
  "about": "(ACS infectious diseases, 2021)",
  "key": {"[1]": {"details": "cited from earlier work"}, "[2]": {"system": "Chloroquine-Resistant (K1) strain of P. falciparum", "details": "parent compound; cited from earlier work"}, "[3]": {"system": "Chloroquine-Sensitive (NF54) strain of P. falciparum", "details": "parent compound; cited from earlier work"}, "[4]": {"details": "single oral dose as low as 20 mg/kg; cited from earlier work"}, "[5]": {"system": "P. falciparum parasites harboring mutations in the Kelch protein, K13", "details": "cited from earlier work"}, "[6]": {"details": "cited from earlier work", "remark": "listed apart in the source"}, "[7]": {"system": "Chloroquine-Resistant (K1) strain of P. falciparum", "type": "cell-based", "details": "for IC50 K1: 72 h [3H]-hypoxanthine incorporation, mean of two biological replicates"}, "[8]": {"system": "Chloroquine-Sensitive (NF54) strain of P. falciparum", "type": "cell-based", "details": "72 h [3H]-hypoxanthine incorporation; mean of two biological replicates"}},
  "note": "Like-named read-outs stand apart in the source and are kept apart here.",
  "data": [
    {"smiles": "CC(C)(N)CNC(=O)C[C@H]1CC[C@]2(CC1)OO[C@]1(O2)C2CC3CC(C2)CC1C3", "note": "[Arterolane]", "values": [
      {"measurement": "in vivo half-life", "setting": "[1]; in vivo", "value": "2 to 4", "unit": "h"}
    ]},
    {"smiles": "c1cc([C@H]2CC[C@]3(CC2)OO[C@]2(O3)C3CC4CC(C3)CC2C4)ccc1OCCN1CCOCC1", "note": "[compound 2]", "values": [
      {"measurement": "IC50 K1", "setting": "[2]", "value": 1.6, "unit": "ng/mL"},
      {"measurement": "IC50 NF54", "setting": "[3]", "value": 1.9, "unit": "ng/mL"},
      {"measurement": "cure rate", "setting": "[4]", "value": 100, "unit": "%"},
      {"measurement": "activity against K13 mutant parasites", "setting": "[5]", "value": "active"},
      {"measurement": "safety", "setting": "[6]; up to a dose of 1600 mg", "value": "good safety properties"}
    ]},
    {"smiles": "[O-][N+]1(CCOc2ccc(C3CCC4(CC3)OOC3(O4)C4CC5CC3CC(O)(C5)C4)cc2)CCOCC1", "note": "(stereo not shown) [compound 11]", "values": [
      {"measurement": "IC50 K1", "setting": "[7]", "value": ">100/>100 ng/mL"},
      {"measurement": "IC50 NF54", "setting": "[8]", "value": ">100/>100 ng/mL"}
    ]},
    {"smiles": "C[C@H]1[C@@H](O)O[C@@H]2O[C@@]3(C)CC[C@H]4[C@H](C)CC[C@@H]1[C@@]24OO3", "note": "[dihydroartemisinin]", "values": [
      {"measurement": "in vivo half-life", "setting": "[1]", "value": "~ 2 h"}
    ]},
    {"smiles": "[O-][N+]1(CCOc2ccc(C3CCC4(CC3)OOC3(O4)C4CC5CC(C4)CC3C5)cc2)CCOCC1", "note": "(stereo not shown) [compound 8]", "values": [
      {"measurement": "IC50 K1", "setting": "[7]", "value": 1.4, "unit": "ng/mL"},
      {"measurement": "in vitro activity against P. falciparum relative to parent 2", "setting": "[7]; K1 and NF54 strains, Table 1", "value": "comparable to 2"},
      {"measurement": "IC50 NF54", "setting": "[8]", "value": 2.3, "unit": "ng/mL"},
      {"measurement": "relative area under the plasma concentration versus time curve (AUC) of metabolites", "setting": "[6]; human, in vivo", "value": "comparatively lower AUC values"}
    ]}
  ]
}
